Measured values taken from the NIST ThermoML archive (doi:10.1016/j.jct.2014.07.018).
Numbers after ± are expanded uncertainties.

Settings: for molar entropy: 101.33 kPa, Vacuum adiabatic calorimetry; for Triple point temperature / Glass transition temperature: Adiabatic calorimetry

CCCCn1cc[n+](C)c1.[I-] [1-butyl-3-methylimidazolium iodide]
molar entropy (0 K, Glass): 15.2 ± 3.2 J/K/mol
molar entropy (5 K, Crystal): 0.279 ± 0.018 J/K/mol
molar entropy (5 K, Glass): 15.7 ± 3.2 J/K/mol
molar entropy (10 K, Crystal): 2.27 ± 0.07 J/K/mol
molar entropy (10 K, Glass): 18.7 ± 3.2 J/K/mol
molar entropy (15 K, Crystal): 6.48 ± 0.15 J/K/mol
molar entropy (15 K, Glass): 24 ± 3.2 J/K/mol
molar entropy (20 K, Crystal): 12.19 ± 0.21 J/K/mol
molar entropy (20 K, Glass): 30.7 ± 3 J/K/mol
molar entropy (25 K, Crystal): 18.74 ± 0.25 J/K/mol
molar entropy (25 K, Glass): 38.1 ± 3 J/K/mol
molar entropy (30 K, Crystal): 25.76 ± 0.29 J/K/mol
molar entropy (30 K, Glass): 46 ± 3 J/K/mol
molar entropy (35 K, Crystal): 32.98 ± 0.34 J/K/mol
molar entropy (35 K, Glass): 54.1 ± 3 J/K/mol
molar entropy (40 K, Crystal): 40.24 ± 0.38 J/K/mol
molar entropy (40 K, Glass): 62.1 ± 3 J/K/mol
molar entropy (45 K, Crystal): 47.47 ± 0.43 J/K/mol
molar entropy (45 K, Glass): 70.1 ± 2.9 J/K/mol
molar entropy (50 K, Crystal): 54.62 ± 0.48 J/K/mol
molar entropy (50 K, Glass): 77.9 ± 2.9 J/K/mol
molar entropy (60 K, Crystal): 68.59 ± 0.56 J/K/mol
molar entropy (60 K, Glass): 93.1 ± 2.9 J/K/mol
molar entropy (70 K, Crystal): 82.02 ± 0.65 J/K/mol
molar entropy (70 K, Glass): 107.7 ± 2.7 J/K/mol
molar entropy (80 K, Crystal): 94.91 ± 0.73 J/K/mol
molar entropy (80 K, Glass): 121.6 ± 2.7 J/K/mol
molar entropy (90 K, Crystal): 107.3 ± 0.8 J/K/mol
molar entropy (90 K, Glass): 135 ± 2.7 J/K/mol
molar entropy (100 K, Crystal): 119.2 ± 1 J/K/mol
molar entropy (100 K, Glass): 147.9 ± 2.7 J/K/mol
molar entropy (110 K, Crystal): 130.6 ± 1 J/K/mol
molar entropy (110 K, Glass): 160.2 ± 2.6 J/K/mol
molar entropy (120 K, Crystal): 141.7 ± 1 J/K/mol
molar entropy (120 K, Glass): 172 ± 2.6 J/K/mol
molar entropy (130 K, Crystal): 152.3 ± 1.1 J/K/mol
molar entropy (130 K, Glass): 183.5 ± 2.6 J/K/mol
molar entropy (140 K, Crystal): 162.6 ± 1.1 J/K/mol
molar entropy (140 K, Glass): 194.6 ± 2.6 J/K/mol
molar entropy (150 K, Crystal): 172.6 ± 1.3 J/K/mol
molar entropy (150 K, Glass): 205.3 ± 2.6 J/K/mol
molar entropy (160 K, Crystal): 182.3 ± 1.3 J/K/mol
molar entropy (160 K, Glass): 215.8 ± 2.4 J/K/mol
molar entropy (170 K, Crystal): 191.8 ± 1.3 J/K/mol
molar entropy (170 K, Glass): 226.1 ± 2.4 J/K/mol
molar entropy (180 K, Crystal): 201.1 ± 1.4 J/K/mol
molar entropy (180 K, Glass): 236.1 ± 2.4 J/K/mol
molar entropy (190 K, Crystal): 210.2 ± 1.4 J/K/mol
molar entropy (190 K, Glass): 246 ± 2.4 J/K/mol
molar entropy (200 K, Crystal): 219.2 ± 1.6 J/K/mol
molar entropy (200 K, Glass): 255.8 ± 2.4 J/K/mol
molar entropy (210 K, Crystal): 228.1 ± 1.6 J/K/mol
molar entropy (210 K, Liquid): 266.8 ± 2.5 J/K/mol
molar entropy (220 K, Crystal): 236.8 ± 1.6 J/K/mol
molar entropy (220 K, Liquid): 280.1 ± 2.5 J/K/mol
molar entropy (230 K, Crystal): 245.5 ± 1.7 J/K/mol
molar entropy (230 K, Liquid): 292.9 ± 2.5 J/K/mol
molar entropy (240 K, Crystal): 254.1 ± 1.7 J/K/mol
molar entropy (240 K, Liquid): 305.3 ± 2.5 J/K/mol
molar entropy (250 K, Crystal): 262.7 ± 1.7 J/K/mol
molar entropy (250 K, Liquid): 317.3 ± 2.3 J/K/mol
molar entropy (260 K, Crystal): 271.2 ± 1.9 J/K/mol
molar entropy (260 K, Liquid): 328.9 ± 2.3 J/K/mol
molar entropy (270 K, Crystal): 279.8 ± 1.9 J/K/mol
molar entropy (270 K, Liquid): 340.1 ± 2.3 J/K/mol
molar entropy (280 K, Crystal): 288.5 ± 1.9 J/K/mol
molar entropy (280 K, Liquid): 351.1 ± 2.3 J/K/mol
molar entropy (290 K, Crystal): 297.2 ± 2 J/K/mol
molar entropy (290 K, Liquid): 361.9 ± 2.3 J/K/mol
molar entropy (291.92 K, Crystal): 298.8 ± 2 J/K/mol
molar entropy (291.92 K, Liquid): 363.9 ± 2.3 J/K/mol
molar entropy (298.15 K, Liquid): 370.4 ± 2.5 J/K/mol
molar entropy (300 K, Liquid): 372.3 ± 2.5 J/K/mol
molar entropy (310 K, Liquid): 382.6 ± 2.5 J/K/mol
molar entropy (320 K, Liquid): 392.6 ± 2.6 J/K/mol
molar entropy (330 K, Liquid): 402.4 ± 2.6 J/K/mol
molar entropy (340 K, Liquid): 412.1 ± 2.6 J/K/mol
molar entropy (350 K, Liquid): 421.5 ± 2.8 J/K/mol
molar entropy (360 K, Liquid): 430.9 ± 2.8 J/K/mol
molar entropy (370 K, Liquid): 440 ± 2.8 J/K/mol
Triple point temperature (Crystal): 291.92 ± 0.04 K
Glass transition temperature (Glass): -66 ± 1 °C

CCC[n+]1ccn(C)c1.[Br-] [1-methyl-3-propylimidazolium bromide]
molar entropy (0 K, Glass): 15.3 ± 2.9 J/K/mol
molar entropy (5 K, Crystal 2): 0.097 ± 0.013 J/K/mol
molar entropy (5 K, Glass): 15.6 ± 2.9 J/K/mol
molar entropy (10 K, Crystal 2): 0.884 ± 0.031 J/K/mol
molar entropy (10 K, Glass): 17.7 ± 2.9 J/K/mol
molar entropy (15 K, Crystal 2): 3.03 ± 0.07 J/K/mol
molar entropy (15 K, Glass): 21.6 ± 2.9 J/K/mol
molar entropy (20 K, Crystal 2): 6.53 ± 0.1 J/K/mol
molar entropy (20 K, Glass): 26.8 ± 2.9 J/K/mol
molar entropy (25 K, Crystal 2): 11.08 ± 0.14 J/K/mol
molar entropy (25 K, Glass): 32.9 ± 2.7 J/K/mol
molar entropy (30 K, Crystal 2): 16.39 ± 0.17 J/K/mol
molar entropy (30 K, Glass): 39.5 ± 2.7 J/K/mol
molar entropy (35 K, Crystal 2): 22.19 ± 0.22 J/K/mol
molar entropy (35 K, Glass): 46.3 ± 2.7 J/K/mol
molar entropy (40 K, Crystal 2): 28.28 ± 0.25 J/K/mol
molar entropy (40 K, Glass): 53.3 ± 2.7 J/K/mol
molar entropy (45 K, Crystal 2): 34.52 ± 0.29 J/K/mol
molar entropy (45 K, Glass): 60.2 ± 2.7 J/K/mol
molar entropy (50 K, Crystal 2): 40.8 ± 0.33 J/K/mol
molar entropy (50 K, Glass): 67.1 ± 2.7 J/K/mol
molar entropy (60 K, Crystal 2): 53.3 ± 0.41 J/K/mol
molar entropy (60 K, Glass): 80.6 ± 2.6 J/K/mol
molar entropy (70 K, Crystal 2): 65.48 ± 0.49 J/K/mol
molar entropy (70 K, Glass): 93.6 ± 2.6 J/K/mol
molar entropy (80 K, Crystal 2): 77.24 ± 0.56 J/K/mol
molar entropy (80 K, Glass): 106.1 ± 2.6 J/K/mol
molar entropy (90 K, Crystal 2): 88.54 ± 0.66 J/K/mol
molar entropy (90 K, Glass): 118.1 ± 2.4 J/K/mol
molar entropy (100 K, Crystal 2): 99.4 ± 0.73 J/K/mol
molar entropy (100 K, Glass): 129.6 ± 2.4 J/K/mol
molar entropy (110 K, Crystal 2): 109.8 ± 0.8 J/K/mol
molar entropy (110 K, Glass): 140.6 ± 2.4 J/K/mol
molar entropy (120 K, Crystal 2): 119.9 ± 0.8 J/K/mol
molar entropy (120 K, Glass): 151.2 ± 2.4 J/K/mol
molar entropy (130 K, Crystal 2): 129.6 ± 1 J/K/mol
molar entropy (130 K, Glass): 161.4 ± 2.4 J/K/mol
molar entropy (140 K, Crystal 2): 139 ± 1 J/K/mol
molar entropy (140 K, Glass): 171.3 ± 2.3 J/K/mol
molar entropy (150 K, Crystal 2): 148 ± 1 J/K/mol
molar entropy (150 K, Glass): 180.8 ± 2.3 J/K/mol
molar entropy (160 K, Crystal 2): 156.9 ± 1.1 J/K/mol
molar entropy (160 K, Glass): 190.2 ± 2.3 J/K/mol
molar entropy (170 K, Crystal 2): 165.5 ± 1.1 J/K/mol
molar entropy (170 K, Glass): 199.3 ± 2.3 J/K/mol
molar entropy (180 K, Crystal 2): 173.9 ± 1.1 J/K/mol
molar entropy (180 K, Glass): 208.2 ± 2.3 J/K/mol
molar entropy (190 K, Crystal 2): 182.2 ± 1.3 J/K/mol
molar entropy (190 K, Glass): 217 ± 2.3 J/K/mol
molar entropy (200 K, Crystal 2): 190.2 ± 1.3 J/K/mol
molar entropy (200 K, Glass): 225.6 ± 2.3 J/K/mol
molar entropy (210 K, Crystal 2): 198.2 ± 1.3 J/K/mol
molar entropy (210 K, Glass): 234.3 ± 2.2 J/K/mol
molar entropy (220 K, Crystal 2): 206.1 ± 1.4 J/K/mol
molar entropy (220 K, Liquid): 244.9 ± 2.2 J/K/mol
molar entropy (230 K, Crystal 2): 213.8 ± 1.4 J/K/mol
molar entropy (230 K, Liquid): 256.5 ± 2.2 J/K/mol
molar entropy (240 K, Crystal 2): 221.5 ± 1.4 J/K/mol
molar entropy (240 K, Liquid): 267.7 ± 2.2 J/K/mol
molar entropy (250 K, Crystal 2): 229.2 ± 1.6 J/K/mol
molar entropy (250 K, Liquid): 278.5 ± 2.2 J/K/mol
molar entropy (260 K, Crystal 2): 236.8 ± 1.6 J/K/mol
molar entropy (260 K, Liquid): 289 ± 2.2 J/K/mol
molar entropy (270 K, Crystal 2): 244.4 ± 1.6 J/K/mol
molar entropy (270 K, Liquid): 299.2 ± 2.2 J/K/mol
molar entropy (280 K, Crystal 2): 252.1 ± 1.6 J/K/mol
molar entropy (280 K, Liquid): 309.1 ± 2.2 J/K/mol
molar entropy (290 K, Crystal 2): 259.9 ± 1.7 J/K/mol
molar entropy (290 K, Liquid): 318.8 ± 2.2 J/K/mol
molar entropy (298.15 K, Crystal 2): 266.3 ± 1.7 J/K/mol
molar entropy (298.15 K, Liquid): 326.6 ± 2.2 J/K/mol
molar entropy (300 K, Liquid): 328.3 ± 2.2 J/K/mol
molar entropy (309.54 K, Crystal 2): 275.4 ± 1.7 J/K/mol
molar entropy (309.54 K, Liquid): 337.2 ± 2.2 J/K/mol
molar entropy (310 K, Liquid): 337.6 ± 2.2 J/K/mol
molar entropy (320 K, Liquid): 346.7 ± 2.2 J/K/mol
molar entropy (330 K, Liquid): 355.6 ± 2.3 J/K/mol
molar entropy (340 K, Liquid): 364.4 ± 2.3 J/K/mol
molar entropy (350 K, Liquid): 373 ± 2.3 J/K/mol
molar entropy (360 K, Liquid): 381.5 ± 2.5 J/K/mol
molar entropy (370 K, Liquid): 389.8 ± 2.5 J/K/mol
Triple point temperature (Crystal 2): 309.54 ± 0.05 K
Glass transition temperature (Glass): -60 ± 1 °C
